Test results taken from US20250257060A1, “OXADIAZOLE COMPOUND, PHARMACEUTICAL COMPOSITION COMPRISING SAME, AND USE THEREOF” (SUZHOU GENHOUSE BIO CO., LTD., priority 2022, published 2025).
Like-named read-outs stand apart in the source and are kept apart here. One block for each compound: values may come before it.

How the values were obtained:
[1] = Brain-to-blood drug concentration ratio of mice; assay type: in vivo; conditions: mouse, 5 mg/kg PO
Procedure: On the day of administration, mice were weighed for actual body weight and the administration volume was calculated. In each group of 9 mice, the compound was administered by single intravenous (IV) injection or intragastric (PO) administration. Whole blood samples were collected via the orbit at prescribed time points. After blood sample collection, the samples were immediately transferred to labeled commercial sample tubes containing K2-EDTA (0.85-1.15 mg), followed by centrifugation (3200×g, 4° C., 10 min) and plasma collection. The plasma was transferred to a pre-cooled centrifuge tube, frozen in dry ice, and stored in an ultra-low temperature freezer at −60° C. or lower until the LC-MS/MS analysis. 20 μL of a plasma sample or brain tissue homogenate was taken and 80 μL of an internal standard solution (50 ng/mL solution of propafenone in acetonitrile) was added. The plate was sealed with a film sealer at 165° C., shaken on a micro oscillator (maximum vibration speed) for 10 min, and centrifuged at 4000 rpm for 20 min using a low-speed benchtop centrifuge, 10 μL of supernatant was transferred and 90 μL of acetonitrile was added. The mixture was vortexed and mixed well, and then the plate was sealed with the film sealer at 165° C. After the mixture was vortexed and mixed well, 1 μL of supernatant was taken for LC-MS/MS analysis. Plasma drug concentration data for the compounds were processed in a non-compartmental model using WinNonlin Version 6.3 (Pharsight, Mountain View, CA) pharmacokinetic software. The relevant pharmacokinetic parameters were calculated by a linear logarithmic trapezoid method.
Data processing: brain-to-blood drug concentration ratio of mice at the same time point=drug concentration in brain tissue/drug concentration in plasma

[2] = tested on: acetylation level of α-tubulin in HCT116 cells; test: Assay on acetylation level of α-tubulin, HCT116 cells; assay type: cell-based; conditions: Homo sapiens, HCT-116, 6 h
Procedure: A375/HCT116/HCC827 cells at a logarithmic growth phase were taken, digested with a […] (trypsin), centrifuged, counted, and plated in a 96-well plate at an appropriate cell density (30,000 cells/well) at 100 µL/well, and an appropriate amount of PBS was added around the plate for water sealing. The next day, the cells were treated with the compounds at different concentrations (starting at 100 μM, 5-fold dilution, 9 concentration gradients). After 6 h, the medium was pipetted out and the cells were washed twice with 100 μL of PBST. The cells were then immobilized in 4% paraformaldehyde, and the plate was incubated at room temperature for 20 min. The stationary liquid was discarded and the cells were washed with PBST. 150 μL of special blocking buffer (containing 1% Triton-100) was added to each well for blocking at room temperature for 2 h, and the plate was washed with PBS to remove excess blocking buffer. α-tubulin (DM1A) mouse mAb and acetyl-α-tubulin (Lys40) (D20G3) XP rabbit mAb were diluted at a 1:2000 ratio with a blocking buffer containing 0.033% Triton-100. The dilutions were added to the 96-well plate and the plate was incubated overnight at 4° C. Meanwhile, a blank control group was set. The next day, the plate was washed twice with PBST. Secondary anti-mouse IgG (H+L) (DyLight™ 680 conjugate) and anti-rabbit IgG (H+L) (DyLight™ 800 conjugate) were diluted at a 1:2000 ratio with a blocking buffer containing 0.033% Triton-100. The dilutions were added to a 96-well plate and the plate was incubated at room temperature for 2 h. The plate was washed twice with PBST and once with PBS. Fluorescence signals at 700 nm and 800 nm were detected with a Li-COR Odyssey two-color near-infrared laser imager.

[3] = Pharmacokinetic test in mice (IV and PO); assay type: in vivo, BALB/c mice; conditions: for MRT inf: read-out: MRT(0-∞)
Procedure: In this example, the pharmacokinetic behavior of the compounds after intravenous injection (IV) and intragastric (PO) administration in BALB/c mice was tested.
On the day of administration, mice were weighed for actual body weight and the administration volume was calculated. Each compound was tested in two groups with 3 mice in each group, one group administered by single intravenous injection and the other group of mice by single intragastric administration. Whole blood samples were collected via the orbit at prescribed time points (0.25 h, 0.5 h, 1 h, 2 h, 4 h, 8 h, and 24 h after administration). After blood sample collection, the samples were immediately transferred to labeled commercial sample tubes containing K2-EDTA (0.85-1.15 mg), followed by centrifugation (3200×g, 4° C., 10 min) and plasma collection. The plasma was transferred to a pre-cooled centrifuge tube, frozen in dry ice, and stored in an ultra-low temperature freezer at −60° C. or lower until the LC-MS/MS analysis.
Plasma concentrations were determined by a LC-MS/MS method. Plasma drug concentration data for compounds 1 and 2 were processed in a non-compartmental model using WinNonlin Version 6.3 (Pharsight, Mountain View, CA) pharmacokinetic software. The relevant pharmacokinetic parameters were calculated by a linear logarithmic trapezoid method.

[4] = BALB/c, mouse, plasma, mice, IV 1 mg/kg
[5] = BALB/c, mouse, plasma, mice, PO 5 mg/kg

concentration at 1 h ([1]; brain, 1 h, read-out: Brain drug concentration): 218 ng/mL
concentration at 2 h ([1]; brain, 2 h, read-out: Brain drug concentration): 174 ng/mL
Kp at 1 h ([1]; brain/plasma, 1 h): 0.07
Kp at 2 h ([1]; brain/plasma, 2 h): 0.09
concentration at 1 h ([1]; plasma, 1 h, read-out: Blood drug concentration): 2950 ng/mL
concentration at 2 h ([1]; plasma, 2 h, read-out: Blood drug concentration): 1780 ng/mL
EC50 [2]: 133 nM
Cmax ([3]; BALB/c, mouse, plasma, po, 5 mg/kg, read-out: C0/Cmax): 7.13 µM
AUC(0-inf) [3, 4]: 4.53 µM·h
AUC(0-t) [3, 4]: 4.42 µM·h
Cmax ([3]; BALB/c, mouse, plasma, mice, IV 1 mg/kg (C0)): 3.05 µM
MRT inf [3, 4]: 1.85 h
Vd ([3]; BALB/c, mouse, plasma, mice, IV 1 mg/kg, read-out: Vz): 1.05 L/kg
AUC(0-inf) [3, 5]: 22 µM·h
AUC(0-t) [3, 5]: 21.4 µM·h
Tmax [3, 5]: 0.5 h
MRT inf [3, 5]: 2.63 h
CLz ([3]; mice, IV 1 mg/kg): 8 mL/min/kg
t½z ([3]; mice, IV 1 mg/kg): 1.52 h
F ([3]; mice, PO 5 mg/kg): 97.0%
t½z ([3]; mice, PO 5 mg/kg): 1.52 h
SMILES: O=C(N[C@@H]1COCC[C@H]1N1Cc2ccc(-c3nnc(C(F)F)o3)cc2S1(=O)=O)C(F)F [Compound 13]

EC50 [2]: 467 nM
SMILES: O=C(N[C@@H]1CCOC[C@H]1N1Cc2ccc(-c3nnc(C(F)F)o3)cc2S1(=O)=O)C1(C(F)(F)F)CC1 [Compound 65]
